# In patent publication US9873883B2, “Glyphosate resistant plants and associated methods” (Dow AgroSciences LLC, priority 2012, dated 2018):
# Tests used:
# [1] = system: Arabidopsis transformed with TraP12 v2::dgt-14 (pDAB105528); assay: Postemergence glyphosate tolerance, visual injury; type: in vivo, Arabidopsis thaliana; details: for Visual % injury (Ave): 2 weeks after application
# Excerpt: (§1) Transgenic T1 Arabidopsis plants containing the dgt-14 transgene were sprayed with differing rates of glyphosate. A distribution of varying concentrations of glyphosate rates, including elevated rates, were applied in this study to determine the relative levels of resistance (105, 420, 1,680 or 3,360 g ae/ha). The typical 1× field usage rate of glyphosate is 1,120 g ae/ha. The T1 Arabidopsis plants that were used in this study were variable in copy number for the dgt-14 transgene. The low copy dgt-14 T1 Arabidopsis plants were identified using the molecular confirmation assays described above, and self-pollinated and used to produce T2 plants.
# (§2) The Arabidopsis T1 transformants were first selected from the background of untransformed seed using a glufosinate selection scheme. Three flats or 30,000 seed were analyzed for each T1 construct. The T1 plants selected above were molecularly characterized and the plants were subsequently transplanted to individual pots and sprayed with various rates of commercial glyphosate as previously described. The dose response of these plants is presented in terms of % visual injury 2 weeks after treatment (WAT). […] An arithmetic mean and standard deviation is presented for each construct used for Arabidopsis transformation. The range in individual response is also indicated in the last column for each rate and transformation. Wildtype, non-transformed Arabidopsis (c.v. Columbia) served as a glyphosate sensitive control.
# (§3) Selected T1 Arabidopsis plants which were identified to contain low-copy numbers of transgene insertions (1-3 copies) were self-fertilized to produce a second generation for additional assessment of glyphosate tolerance. […] In the T2 generation hemizygous and homozygous plants were available for testing for each event and therefore were included for each rate of glyphosate tested. Hemizygous plants contain two different alleles at a locus as compared to homozygous plants which contain the same two alleles at a locus. The copy number and ploidy levels of the T2 plants were confirmed using the molecular analysis protocols previously described. Likewise, glyphosate was applied using the methods and rates as previously described. The dose response of the plants is presented in terms of % visual injury 2 weeks after treatment (WAT). […] An arithmetic mean and standard deviation are presented for each construct used for Arabidopsis transformation. The range in individual response is also indicated in the last column for each rate and transformation. Wildtype, non-transformed Arabidopsis (cv. Columbia) served as a glyphosate sensitive control. In addition, plants comprising a glyphosate herbicide resistance gene, dgt-1 (as described in U.S. patent Ser. No. 12/558,351, incorporated herein by reference in its entirety) were included as a positive control.
# (§4) Randomly selected T2 Arabidopsis plants which were identified to contain low-copy numbers of transgene insertions (1-3 copies) were self-fertilized to produce a third generation for additional assessment of glyphosate tolerance. Arabidopsis seed from the third generation (T3) were planted and evaluated for glyphosate tolerance using the same protocols as previously described. […] These Events were assayed via LC-MS-MS to confirm that the plants expressed the DGT-14 protein. […] Exemplary resistant T3 Events comprised dgt-14 linked with TraP8 v2 (pDAB105526), TraP9 v2 (pDAB105527), TraP12 v2 (pDAB105528) and TraP13 v2 (pDAB105529).
# [2] = system: Arabidopsis transformed with TraP5 v2::dgt-14 (pDAB105525); assay: Postemergence glyphosate tolerance, visual injury; type: in vivo, Arabidopsis thaliana; details: 2 weeks after application
# Excerpt: as §1, §2, §3, §4
# dgt-14 soybean plants = assay: Glyphosate tolerance of dgt-14 soybean; type: in vivo, Glycine max; details: sprayed
# Procedure: Terminal leaflets of selected plantlets are treated topically (leaf paint technique) with a herbicide to screen for putative transformants. The screened plantlets are transferred to the greenhouse, allowed to acclimate and then leaf-painted with a herbicide to reconfirm tolerance. These putative transformed T0 plants are sampled and molecular analyses is used to confirm the presence of the selectable marker and the dgt-14 transgene. Several events are identified as containing the transgenes. These T0 plants are advanced for further analysis and allowed to self fertilize in the greenhouse to give rise to T1 seed. Soybean plants containing the dgt-14 transgene are obtained. The dgt-14 soybean plants are sprayed with varying concentrations of glyphosate and shown to provide tolerance to glyphosate at concentrations up to 3360 g ae/ha.
structure (smiles),measurement,setting,value
"O=C(O)CNCP(=O)(O)O [glyphosate, N-(phosphonomethyl)glycine]",Visual % injury (Ave),"[1]; T1, 105 g ae/ha",6.0%
same,Visual % injury (Ave),"[1]; T1, 420 g ae/ha",11.0%
same,Visual % injury (Ave),"[1]; T1, 1680 g ae/ha",20.4%
same,Visual % injury (Ave),"[1]; T1, 3360 g ae/ha",19.0%
same,Visual % injury (Ave),"[1]; T2, 420 g ae/ha",1.8%
same,Visual % injury (Ave),"[1]; T2, 1680 g ae/ha",2.0%
same,Visual % injury (Ave),"[1]; T2, 3360 g ae/ha",3.8%
same,injury range,"[1]; T2, all concentrations of glyphosate tested",less than 20%
same,Visual % injury (Ave),"[1]; T3, 420 g ae/ha",0.0%
same,Visual % injury (Ave),"[1]; T3, 1680 g ae/ha",2.5%
same,Visual % injury (Ave),"[1]; T3, 3360 g ae/ha",4.8%
same,injury range,"[1]; T3, all concentrations of glyphosate tested",less than 20%
same,Visual % injury (Ave),"[2]; T1, 105 g ae/ha",93.0%
same,Visual % injury (Ave),"[2]; T1, 420 g ae/ha",98.6%
same,Visual % injury (Ave),"[2]; T1, 1680 g ae/ha",98.0%
same,Visual % injury (Ave),"[2]; T1, 3360 g ae/ha",96.0%
same,Visual % injury (Ave),"[2]; T2, 420 g ae/ha",86.3%
same,Visual % injury (Ave),"[2]; T2, 1680 g ae/ha",90.0%
same,Visual % injury (Ave),"[2]; T2, 3360 g ae/ha",97.0%
same,Visual % injury (Ave),"[2]; T3, 420 g ae/ha",93.3%
same,Visual % injury (Ave),"[2]; T3, 1680 g ae/ha",93.0%
same,Visual % injury (Ave),"[2]; T3, 3360 g ae/ha",91.7%
same,tolerance to glyphosate at concentrations up to,dgt-14 soybean plants,up to 3360 g ae/ha
